Results published in a melting point compilation (Tetko et al.; mined from patent text by program, amines drawn as free bases though some values may be those of a salt).

SMILES | melting point
C=CCC(C(=O)OC)C(=O)c1cccnc1 (centres undefined) | 112 to 113 °C
O=C1CCC(N2C(=O)c3cccc(NC(=O)c4cccc(C(F)(F)F)c4)c3C2=O)C(=O)N1 (centres undefined) | 257 to 259 °C
COC(=O)c1ccc(Oc2cccnc2)c(N)c1 | 101 °C
O=C(CC(CCCc1ccccc1)C(=O)O)c1ccc(Br)cc1 (centres undefined) | 147 °C
OCC12CN3CN(C(c4ccccc4)N(C1)C3c1ccccc1)C2c1ccccc1 (centres undefined) | 91 to 93 °C
O=C(O)C1=Cc2ccc(Cl)cc2SC1C(F)(F)F (centres undefined) | 226 to 227 °C
CC(=O)NC[C@H]1CN(c2ccc(-c3noc(C(F)(F)F)n3)c(F)c2)C(=O)O1 | 192 to 193 °C
O=C1C(O)=C([N+](=O)[O-])C(=O)c2ccc(F)cc21 | 152 °C
OCCCC1=NN(c2nccs2)C(O)(c2ccc(Cl)cc2)C1 (centres undefined) | 146 to 147 °C
Cn1c(C(F)(F)F)cc(=O)n(-c2ccc3snc(CC(=O)O)c3c2)c1=O | 240 to 242 °C
CN(C)c1ccc(NC2=CC(=O)C(N)=CC2=O)cc1 | 300 °C
COc1ncccc1C(=O)NCCc1ccncc1 | 84 to 87 °C
COc1cc(OCc2c(C)noc2C)c(C=CC(=O)c2ccc(C(=O)O)cc2)cc1-c1cccs1 | 213 to 215 °C
O=c1cc(-c2ccc(OCc3ccccc3)c(OCc3ccccc3)c2)oc2cc(OCC3CO3)ccc12 (centres undefined) | 168 to 170 °C
CCc1cc(CCNc2ncnc3c(F)ccc(F)c23)ccc1Oc1cc(C(F)(F)F)ccn1 | 121 to 122 °C
CCOCCNC(=O)c1cc2c(nc(C)n2C)c2c1CCC1(Cc3ccccc3C1)N2 | 180 to 181 °C
N#Cc1c(N2CCN(C(=O)c3cccs3)CC2)c2sccc2n(Cc2cccc(F)c2)c1=O | 271 °C
CNC(=S)C1(c2ccccc2)CCCCC1=O (centres undefined) | 86 °C
COC(=O)CCCC(=O)c1ccco1 | 42.5 °C
CCCCCCC(C)Nc1ccc2c(c1)CCN2c1ncnc2cc(OC)c(OC)cc12 (centres undefined) | 61 to 63 °C
COc1ccc(Cc2nc(C#N)c[nH]2)cc1 | 170 to 171 °C
CCCCNC(=O)c1c(N)cc(Cl)cc1Cl | 92 to 98 °C
CN(C)C(=C(C#N)C#N)N(C)N=Cc1ccccc1 | 127 to 128 °C
O=c1[nH]c(S)ncc1O | > 300 °C
CC[C@@H](C[C@H](O)[C@H](CC1CCCCC1)NC(=O)[C@H](Cc1c[nH]cn1)NC[C@H](Cc1ccccc1)NC(=O)OC(C)(C)C)C(C)C | 144 °C

SMILES | melting point
CCOC(=O)[C@H](Cc1ccc(-c2c(OC)cc(CCO)cc2OC)cc1)NC(=O)c1c(F)cccc1F | 115 to 117 °C
CC(C)(CCn1cnnc1)NCC(O)c1ccc(OCc2ccccc2)c(CO)c1 (centres undefined) | 139 to 141 °C
Nc1ccc(C2=NN3C(=O)OCC3Cc3cc4c(cc32)OCO4)cc1 (centres undefined) | 173 to 175 °C
N#Cc1ccc2nc3cscc3c(=O)n2c1 | 233 to 234 °C
O=C1C=CC2=C(C1CC1CC1)n1ccc3c1=C(CCC=3)c1nncn12 (centres undefined) | 99 °C
COc1ccccc1-n1c(-c2sc(Nc3ccccc3)nc2C)nc2ccccc2c1=O | 169 to 170 °C
C=C(C)c1nc(CCC)n(Cc2ccc(-c3ccccc3C(=O)C(=O)O)cc2)c1C(=O)O | 150 to 151 °C
COc1ccc(C2=NN(c3ccccc3)C(=O)[C@H]3CC=CC[C@@H]23)cc1OC1CCCC1 (relative stereo) | 134 to 135 °C
CCCCN1CCCC1CNC(=O)c1cc(S(N)(=O)=O)cc2c1OC(C)C2 (centres undefined) | 170 °C
Nc1cccc(-n2nnnc2S)c1 | 205 °C
COc1ccc(CN2Cc3cncn3C(c3ccc(C#N)cc3)C2=O)cc1 (centres undefined) | 155 to 157 °C
Cc1cccc(N2Cc3ccccc3P2(=O)C(C)C)c1 (centres undefined) | 112 to 113 °C
OCCC(=C(c1ccccc1)c1ccccc1)c1ccccc1 | 117 to 119 °C
CC=CCn1c(N(C(C)=O)c2cc(C)cc(C)c2)c(CC)c(=O)[nH]c1=O | 218 to 220 °C
O=C(NCCO[N+](=O)[O-])c1ccc(Br)o1 | 61 to 63 °C
COc1ccc(Cn2c(Br)nc3c(-c4ccco4)ncnc32)cc1 | 150 to 151 °C
CC(C)[C@H](NC(=O)CN)c1nc2c(C(F)(F)F)cccc2c(O)c1C(=O)Nc1nccs1 | 230 °C
COc1ccc(-c2c(Cl)c(CN3C(=O)CCC3=O)nc3sc4c(c23)CCN(C(C)=O)C4)cc1 | 266 to 267 °C
CCOC(=O)C(=NOCCBr)c1csc(N)n1 | 111 to 114 °C
CCCCOc1ccc(C(=O)NCCCCCCCNC(=O)c2ccc(OCCCC)cc2)cc1 | 151 to 152 °C
Cc1ccccc1[C@H]1O[C@H](CC(=O)O)C(=O)N(CC(C)C)c2ccccc21 (relative stereo) | 192 to 195 °C
O=C(Oc1ccccc1)N1Cc2ccccc2C2(Cc3ccccc3O2)C1 (centres undefined) | 128 °C
Cn1c(=O)c(Cl)nc2ccccc21 | 124 to 130 °C
OC(COc1cc(-c2ccccc2)on1)CN1CCOCC1 (centres undefined) | 123 to 124 °C
